Data as given in ChEMBL document CHEMBL1201862, “PubChem BioAssay data set” (2004).
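All cell lines were grown in 96-well plates and treated with compound for 48 hours. GI50 = concentration required for 50% inhibition of growth.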 The source made the active and inactive calls. No stated cut-off is given here; in the data, active = GI50 up to about 1.1 µM and inactive = higher.

Assays:
Experiment in all cases: DTP human tumour cell line panel, 48 h
UACC-62 = system: UACC-62
SF-268 = system: SF-268
HCT-116 = system: HCT-116
SK-MEL-2 = system: SK-MEL-2
KM12 = system: KM12
SF-539 = system: SF-539
RPMI-8226 = system: RPMI-8226
UACC-257 = system: UACC-257
A498 = system: A498
LOX IMVI = system: LOX IMVI
OVCAR-5 = system: OVCAR-5
SR = system: SR
IGROV-1 = system: IGROV-1
HOP-62 = system: HOP-62
DLD-1 = system: DLD-1
ACHN = system: ACHN
MOLT-4 = system: MOLT-4
HCC 2998 = system: HCC 2998

Measured: GI50

Cc1ccc(S(=O)(=O)OCCn2cnc3nc(NC(=O)c4ccccc4)[nH]c(=O)c32)cc1
inactive: UACC-62 > 100 µM | SF-268 > 100 µM | HCT-116 > 100 µM | SK-MEL-2 > 100 µM | KM12 > 100 µM | SF-539 > 100 µM | RPMI-8226 > 100 µM | UACC-257 > 100 µM | A498 > 100 µM | LOX IMVI > 100 µM | OVCAR-5 > 100 µM | SR > 100 µM | IGROV-1 > 100 µM | HOP-62 > 100 µM | DLD-1 > 100 µM | ACHN > 100 µM

c1ccc(SC(CCCCOC2CCCCO2)Sc2ccccc2)cc1 (stereo not given)
inactive: UACC-62 > 100 µM | SF-268 44.5 µM | HCT-116 47.5 µM | MOLT-4 23.3 µM | SK-MEL-2 22.6 µM | KM12 > 100 µM | SF-539 > 100 µM | RPMI-8226 32.4 µM | UACC-257 63.8 µM | A498 88.7 µM | LOX IMVI 65.5 µM | OVCAR-5 > 100 µM | HCC 2998 > 100 µM | IGROV-1 82.8 µM | HOP-62 > 100 µM | DLD-1 > 100 µM | ACHN 59.7 µM

O=C1c2ccccc2C(=O)N1C/C=C/CO
inactive: UACC-62 > 100 µM | SF-268 > 100 µM | HCT-116 > 100 µM | MOLT-4 > 100 µM | SK-MEL-2 > 100 µM | KM12 > 100 µM | SF-539 > 100 µM | RPMI-8226 > 100 µM | UACC-257 > 100 µM | A498 > 100 µM | SR > 100 µM | HCC 2998 > 100 µM | IGROV-1 > 100 µM | HOP-62 > 100 µM | DLD-1 > 100 µM | ACHN > 100 µM

O=C1c2ccccc2C2C1N2C(=O)C(F)(F)F (stereo not given)
inactive: UACC-62 > 100 µM | SF-268 > 100 µM | HCT-116 > 100 µM | MOLT-4 > 100 µM | SK-MEL-2 > 100 µM | KM12 > 100 µM | SF-539 > 100 µM | RPMI-8226 > 100 µM | UACC-257 > 100 µM | A498 > 100 µM | LOX IMVI 49 µM | OVCAR-5 > 100 µM | SR 26.9 µM | IGROV-1 > 100 µM | HOP-62 > 100 µM | DLD-1 > 100 µM | ACHN > 100 µM

CC(=O)Nc1ccc(C(=O)N2N=C(C)/C(=C/c3cccc([N+](=O)[O-])c3)C2=O)cc1
inactive: SF-268 > 100 µM | HCT-116 > 100 µM | MOLT-4 > 100 µM | KM12 > 100 µM | SF-539 > 100 µM | RPMI-8226 > 100 µM | UACC-257 > 100 µM | LOX IMVI > 100 µM | OVCAR-5 > 100 µM | SR > 100 µM | HCC 2998 > 100 µM | HOP-62 > 100 µM | DLD-1 > 100 µM | ACHN > 100 µM
